Test results as given in ChEMBL document CHEMBL5665443, “Enzyme Inhibitor Single Concentration assay results for EUbOPEN Chemogenomics Library” (2024).
Several values for one entry are separate records, joined by “and”; a condition that tells them apart may be missing. Equal values may be shown once.

Columns and labels:
[1] = target: Endonuclease 8-like 1 (Homo sapiens) (UniProt Q96FI4); conditions: Hit No;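 further: fluorescence at 594 nm from quenched duplex DNA oligonucleotides released by NEIL1 cleavage and strand separation, reported as reduction of this enzyme activity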
Sequence of Endonuclease 8-like 1 (Homo sapiens) (Q96FI4 whole entry): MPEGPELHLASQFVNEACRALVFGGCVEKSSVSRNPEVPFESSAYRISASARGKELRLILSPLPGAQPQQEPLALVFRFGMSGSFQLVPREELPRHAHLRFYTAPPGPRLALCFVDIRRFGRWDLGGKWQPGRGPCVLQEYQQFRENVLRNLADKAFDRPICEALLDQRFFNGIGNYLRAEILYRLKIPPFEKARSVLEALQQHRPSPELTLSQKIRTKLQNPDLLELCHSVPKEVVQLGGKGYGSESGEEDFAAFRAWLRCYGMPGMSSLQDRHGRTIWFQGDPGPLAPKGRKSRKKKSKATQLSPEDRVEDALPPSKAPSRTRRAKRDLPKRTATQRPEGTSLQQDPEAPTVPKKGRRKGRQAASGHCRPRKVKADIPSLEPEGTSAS
Description: Inhibition of NEIL1 by quantifying inhibition of NEIL1-mediated cleavage and dissociation of quenched duplex DNA oligonucleotides, measured as fluorescence at 594 nm.

[2] = target: T1, Endonuclease 8-like 2 (Homo sapiens) (UniProt Q969S2); conditions: Hit No;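 further: fluorescence at 594 nm reports NEIL2 cutting and release of a quenched double-stranded DNA oligo substrate, reduced signal read as inhibition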
T1 sequence (whole entry): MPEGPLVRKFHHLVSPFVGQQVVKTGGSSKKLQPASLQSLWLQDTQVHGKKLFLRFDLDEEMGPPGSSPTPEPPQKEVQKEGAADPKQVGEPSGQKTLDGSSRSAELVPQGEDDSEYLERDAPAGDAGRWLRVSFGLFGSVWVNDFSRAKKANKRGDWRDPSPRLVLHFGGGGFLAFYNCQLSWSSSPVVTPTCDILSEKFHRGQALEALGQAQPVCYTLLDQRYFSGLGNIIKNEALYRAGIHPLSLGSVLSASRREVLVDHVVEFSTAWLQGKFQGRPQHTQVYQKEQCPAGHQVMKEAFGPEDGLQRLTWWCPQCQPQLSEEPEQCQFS
Description: Inhibition of NEIL2 by quantifying inhibition of NEIL2-mediated cleavage and dissociation of quenched duplex DNA oligonucleotides, measured as fluorescence at 594 nm.

[3] = target: T2, Endonuclease III-like protein 1 (Homo sapiens) (UniProt P78549); conditions: Hit No;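 further: enzyme assay tracking NTHL1 cutting and release of a quenched double-stranded DNA oligo substrate, read as fluorescence at 594 nm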
T2 sequence (whole entry): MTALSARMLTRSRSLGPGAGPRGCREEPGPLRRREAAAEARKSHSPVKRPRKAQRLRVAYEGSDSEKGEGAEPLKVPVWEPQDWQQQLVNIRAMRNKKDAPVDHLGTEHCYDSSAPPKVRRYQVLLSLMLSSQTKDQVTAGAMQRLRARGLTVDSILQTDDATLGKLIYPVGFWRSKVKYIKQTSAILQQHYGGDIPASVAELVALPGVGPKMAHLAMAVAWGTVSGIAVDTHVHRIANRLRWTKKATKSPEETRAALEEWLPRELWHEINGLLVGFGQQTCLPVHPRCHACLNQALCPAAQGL
Description: Inhibition of NTHL1 by quantifying inhibition of NTHL1-mediated cleavage and dissociation of quenched duplex DNA oligonucleotides, measured as fluorescence at 594 nm.

[4] = target: N-glycosylase/DNA lyase (Homo sapiens) (UniProt O15527); conditions: Hit No;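 further: OGG1 cleavage of a quenched duplex DNA oligonucleotide, coupled to APE1 for strand incision, read as fluorescence at 594 nm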
Sequence of N-glycosylase/DNA lyase (Homo sapiens) (O15527 whole entry): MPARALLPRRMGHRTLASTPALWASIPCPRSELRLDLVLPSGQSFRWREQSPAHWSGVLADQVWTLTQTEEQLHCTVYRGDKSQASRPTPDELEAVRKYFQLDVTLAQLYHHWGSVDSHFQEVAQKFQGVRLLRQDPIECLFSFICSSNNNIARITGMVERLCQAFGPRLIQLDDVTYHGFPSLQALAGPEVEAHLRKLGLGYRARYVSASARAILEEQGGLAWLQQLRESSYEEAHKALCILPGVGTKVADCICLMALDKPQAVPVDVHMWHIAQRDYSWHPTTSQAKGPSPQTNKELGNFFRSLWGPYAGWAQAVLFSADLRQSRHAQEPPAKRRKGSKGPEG
Description: Inhibition of OGG1 by quantifying inhibition of OGG1-mediated cleavage and dissociation of quenched duplex DNA oligonucleotides, measured as fluorescence at 594 nm. To generate a functional strand incision and increase turn-over this assay is coupled to APE1.

[5] = target: T3, Single-strand selective monofunctional uracil DNA glycosylase (Homo sapiens) (UniProt Q53HV7); conditions: Hit No;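 further: enzymatic SMUG1 assay coupled with APE1, reading fluorescence at 594 nm released when a quenched double-stranded DNA oligonucleotide substrate is cleaved and separated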
T3 sequence (whole entry): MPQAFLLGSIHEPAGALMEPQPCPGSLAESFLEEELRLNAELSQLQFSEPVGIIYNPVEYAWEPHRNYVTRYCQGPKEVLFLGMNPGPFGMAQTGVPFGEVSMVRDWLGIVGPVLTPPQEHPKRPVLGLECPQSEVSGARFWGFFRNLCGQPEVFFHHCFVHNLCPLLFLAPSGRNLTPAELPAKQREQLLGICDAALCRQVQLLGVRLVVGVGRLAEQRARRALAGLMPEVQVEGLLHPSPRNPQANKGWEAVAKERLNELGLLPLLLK
Description: Inhibition of SMUG1 by quantifying inhibition of SMUG1-mediated cleavage and dissociation of quenched duplex DNA oligonucleotides, measured as fluorescence at 594 nm. To generate a functional strand incision and increase turn-over this assay is coupled to APE1.

[6] = target: Uracil-DNA glycosylase (Homo sapiens) (UniProt P13051); conditions: Hit No;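 further: UNG excision on a quenched double-stranded DNA oligo probe, with APE1 added for strand incision and turnover, read as fluorescence at 594 nm as strands separate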
Sequence of Uracil-DNA glycosylase (Homo sapiens) (P13051 whole entry): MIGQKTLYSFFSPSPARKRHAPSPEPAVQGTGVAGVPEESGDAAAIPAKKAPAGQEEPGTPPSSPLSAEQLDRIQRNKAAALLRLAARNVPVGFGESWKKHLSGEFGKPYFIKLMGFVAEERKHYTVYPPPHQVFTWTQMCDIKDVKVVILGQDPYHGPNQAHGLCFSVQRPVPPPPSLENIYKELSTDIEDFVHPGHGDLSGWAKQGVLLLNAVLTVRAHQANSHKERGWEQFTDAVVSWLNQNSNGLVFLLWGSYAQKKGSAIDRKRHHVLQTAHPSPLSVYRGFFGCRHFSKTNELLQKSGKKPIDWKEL
Description: Inhibition of UNG by quantifying inhibition of UNG-mediated cleavage and dissociation of quenched duplex DNA oligonucleotides, measured as fluorescence at 594 nm. To generate a functional strand incision and increase turn-over this assay is coupled to APE1.

[7] = target: G/T mismatch-specific thymine DNA glycosylase (Homo sapiens) (UniProt Q13569); conditions: Compound Concentration 10.0 uM, Hit No;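 further: human TDG cleavage of quenched duplex DNA oligonucleotides coupled to APE1, strand release read as fluorescence at 594 nm, inhibition of TDG activity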
Sequence of G/T mismatch-specific thymine DNA glycosylase (Homo sapiens) (Q13569 whole entry): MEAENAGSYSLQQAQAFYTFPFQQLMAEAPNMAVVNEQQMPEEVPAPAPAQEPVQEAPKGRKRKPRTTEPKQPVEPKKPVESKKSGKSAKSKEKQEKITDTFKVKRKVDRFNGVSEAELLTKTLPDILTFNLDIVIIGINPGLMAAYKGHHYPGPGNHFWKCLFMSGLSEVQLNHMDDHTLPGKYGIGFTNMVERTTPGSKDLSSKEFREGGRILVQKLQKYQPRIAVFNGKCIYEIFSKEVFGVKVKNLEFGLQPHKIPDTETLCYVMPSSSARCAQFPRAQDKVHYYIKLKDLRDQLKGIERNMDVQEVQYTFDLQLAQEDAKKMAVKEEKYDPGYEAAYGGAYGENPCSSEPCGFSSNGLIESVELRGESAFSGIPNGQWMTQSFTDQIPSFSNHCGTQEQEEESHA
Description: Inhibition of TDG by quantifying inhibition of TDG-mediated cleavage and dissociation of quenched duplex DNA oligonucleotides, measured as fluorescence at 594 nm. To generate a functional strand incision and increase turn-over this assay is coupled to APE1.

SMILES	inhibition ([1]; Compound Concentration 1.0 uM) [%]	inhibition ([2]; Compound Concentration 1.0 uM) [%]	inhibition ([3]; Compound Concentration 1.0 uM) [%]	inhibition ([4]; Compound Concentration 1.0 uM) [%]	inhibition ([5]; Compound Concentration 1.0 uM) [%]	inhibition ([6]; Compound Concentration 1.0 uM) [%]	inhibition ([1]; Compound Concentration 10.0 uM)	inhibition ([2]; Compound Concentration 10.0 uM)	inhibition ([3]; Compound Concentration 10.0 uM) [%]	inhibition ([4]; Compound Concentration 10.0 uM)	inhibition ([5]; Compound Concentration 10.0 uM) [%]	inhibition [7] [%]	inhibition ([6]; Compound Concentration 10.0 uM)
Cn1cc(C2=C(c3cn(C4CCN(Cc5ccccn5)CC4)c4ccccc34)C(=O)NC2=O)c2ccccc21	-7.52	-6.23	2.88	-2.56	6.08	-3.81	–	–	–	–	–	–	–
C[C@H]1[C@H]2CC[C@H]3[C@@H]4CC=C5C[C@@H](N(C)C)CC[C@]5(C)[C@H]4CC[C@]23CN1C	–	–	–	–	–	–	-0.649%	-7.72%	7.05	-2.15%	4.86	5.99	-8.6%
CN(c1ncccc1CNc1ccnc(-c2nc3c(F)c(Cl)ccc3[nH]2)n1)S(C)(=O)=O	–	–	–	–	–	–	1.59%	-8.38%	9.15	-6.69%	9.82	35.5	-1.37%
COc1cc(Nc2nccc(-c3cnn4nc(OC)ccc34)n2)cc(C(F)(F)F)c1	–	–	–	–	–	–	11.1%	-0.842%	0.785	8.51%	1.75	8.41	-0.0969%
O=C(N[C@H](Cc1ccc(Cl)cc1)C(=O)N1CCC(Cn2cncn2)(C2CCCCC2)CC1)[C@H]1Cc2ccccc2CN1	–	–	–	–	–	–	5.49%	0.159%	-6.04	6.85%	10.8	–	-1.71%
CN1C[C@H](C(=O)N[C@]2(C)O[C@@]3(O)[C@@H]4CCCN4C(=O)[C@H](Cc4ccccc4)N3C2=O)C[C@@H]2c3cccc4[nH]cc(c34)C[C@H]21	–	–	–	–	–	–	9.88%	7%	15.8	-8.52%	0.306	7.37	-3.4%
Cc1c(C(=O)Nc2cccc(C(F)(F)F)c2)cc(-c2ccccc2)n1CCCN1CCOCC1	–	–	–	–	–	–	0.00926%	–	-7.69	-6.32%	6.03	–	-3.84%
NCCc1cn(S(=O)(=O)c2c(Cl)nc3sccn23)c2ccccc12	–	–	–	–	–	–	6.53%	-1.62%	-1.91	16.8%	3.77	–	-2.77%
CC(C)Oc1ccc(-c2nn([C@@H](C)c3oc4ccc(F)cc4c(=O)c3-c3cccc(F)c3)c3ncnc(N)c23)cc1F	–	–	–	–	–	–	-4.09%	–	8.46	8.77%	23.6	80.6	6.08%
CN(C)C(=O)C(CCN1CCC(O)(c2ccc(Cl)cc2)CC1)(c1ccccc1)c1ccccc1	–	–	–	–	–	–	7.8%	7.75%	28.3	-5.28%	-1.44	5.3	-5.39%
NCCCNCCCCNCCC(=O)NCCCCCNC(=O)[C@H](CC(N)=O)NC(=O)Cc1ccc(O)cc1O	–	–	–	–	–	–	0.898%	-3.66%	-0.258	0.0747%	-7.3	–	-1.11%
CC(=O)c1ccc2c(c1)[C@@H]1C=CC[C@@H]1[C@H](c1cc3c(cc1Br)OCO3)N2	–	–	–	–	–	–	1.72%	9.25%	11.4	2.12%	5.25	13.5	-3.58%
CN1C(=O)[C@@H](NC(=O)c2cc3ccccc3[nH]2)N=C(c2ccccc2)c2ccccc21	–	–	–	–	–	–	–	–	22.4	-4.56%	-0.954	4.69	-5.09%
OC1(c2ccc(Cl)cc2)CCN(Cc2c[nH]c3ccccc23)CC1	–	–	–	–	–	–	-5.1%	5.51%	7.05	-9.04%	-1.92	17.2	-8.06%
OCCN1CCN(CCCN2c3ccccc3Sc3ccc(Cl)cc32)CC1	–	–	–	–	–	–	17.1%	12.5%	3.39	-8.6%	-0.808	3.7	-5.33%
CC(C)(C)c1cc(C(C)(C)C)c(NC(=O)c2c[nH]c3ccccc3c2=O)cc1O	–	–	–	–	–	–	1.34%	5.25%	14.6	-6.32%	6.2	–	1.6%

SMILES	inhibition ([1]; Compound Concentration 1.0 uM) [%]	inhibition ([2]; Compound Concentration 1.0 uM) [%]	inhibition ([3]; Compound Concentration 1.0 uM) [%]	inhibition ([4]; Compound Concentration 1.0 uM) [%]	inhibition ([5]; Compound Concentration 1.0 uM) [%]	inhibition ([6]; Compound Concentration 1.0 uM) [%]	inhibition ([1]; Compound Concentration 10.0 uM)	inhibition ([2]; Compound Concentration 10.0 uM)	inhibition ([3]; Compound Concentration 10.0 uM) [%]	inhibition ([4]; Compound Concentration 10.0 uM)	inhibition ([5]; Compound Concentration 10.0 uM) [%]	inhibition [7] [%]	inhibition ([6]; Compound Concentration 10.0 uM)
O=C1O[C@]2(CC[C@H](C(=O)Nc3ccn(-c4ccccc4F)n3)CC2)c2cnccc21	–	–	–	–	–	–	-8.51%	-7.47%	-1.74	-9.12%	3.16	1.4	-8.76%
COc1cc(OC)c(NC(=O)c2ccc(Cc3cc4c(cc3C)C(C)(C)CCC4(C)C)o2)c(OC)c1	–	–	–	–	–	–	7.51%	14.7%	19.5	2.66%	-2.6	1.84	-5.24%
COCC(=O)NC/C=C/c1ccc2ncnc(Nc3ccc(Oc4ccc(C)nc4)c(C)c3)c2c1	–	–	–	–	–	–	-8.05%	–	1.48	5.64%	21.7	11.2	9.27%
N=C(N)NCCC[C@@H](NC(=O)C(c1ccccc1)c1ccccc1)C(=O)NCc1ccc(CNC(N)=O)cc1	–	–	–	–	–	–	11.1%	-2.13%	11.3	-4.9%	0.0989	–	-1.81%
CN(C(=O)Cc1ccc(Cl)c(Cl)c1)C(CN1CCCC1)c1cccc(OCC(=O)O)c1 (stereo not given)	–	–	–	–	–	–	-0.5%	-9.22%	13.7	-6.71%	-2.65	-1.52	-7.78%
CN(C)S(=O)(=O)c1ccc(NC(=S)N2CCC(C(O)(c3ccccc3)c3ccccc3)CC2)cc1	–	–	–	–	–	–	-0.797%	0.265%	16.6	-3.65%	3.26	-1.66	-7.47%
O=c1c2cccn2c2ccccc2n1CCCN1CCC(c2ccc(Cl)cc2)CC1	–	–	–	–	–	–	10.5%	7.75%	6.32	-2.48%	5.73	2.78	-8.09%
N#Cc1ccc(Cn2ccc(NC(=O)Cc3ccc(C4(C(F)(F)F)CC4)cc3)n2)nc1	–	–	–	–	–	–	4.9%	-3.66%	17.1	-2.87%	-0.24	-8.44	-0.478%
C[C@@H](O[C@H]1OCCN(Cc2n[nH]c(=O)[nH]2)[C@H]1c1ccc(F)cc1)c1cc(C(F)(F)F)cc(C(F)(F)F)c1	–	–	–	–	–	–	5.88%	8.5%	-1.01	-7.13%	-5.17	0.716	-3.75%
FC(F)c1nc2ccccc2n1-c1nc(N2CCOCC2)nc(N2CCOCC2)n1	–	–	–	–	–	–	–	–	7.06	3.08%	27	32.9	-3.48%
COc1ccc(NS(=O)(=O)c2sc3ccc(Cl)cc3c2C)cc1N1CCNCC1	–	–	–	–	–	–	16%	1.51%	-3.94	-6.55%	12	18	-3.02%
S=C(NCCCc1c[nH]cn1)NCCCN(Cc1ccc(Cl)c(Cl)c1)c1ccc(Br)cn1	–	–	–	–	–	–	-8.51% and -1.24%	-7.72% and 0.265%	7.05	-8.08% and 0.522%	0.354	-1.74	-7.82% and -8.52%
O=C(Nc1ccc(Cl)cc1)Nc1cccc(-c2cccc(N3CCCC3)n2)c1	–	–	–	–	–	–	8.84%	-4.23%	-0.275	-1.14%	-0.712	–	-9.34%
O=C(Nc1ccc(-n2nc(C(F)(F)F)cc2C(F)(F)F)cc1)c1ccncc1F	–	–	–	–	–	–	3.86%	-8.25%	-4.39	-5.81%	-4.65	–	-0.503%
CC[C@@H]1CN(C(=O)NCC(F)(F)F)C[C@@H]1c1cnc2cnc3[nH]ccc3n12	–	–	–	–	–	–	4.1%	–	2.88	0.361%	20.8	36.4	1.27%
